US20230242530A1, “8-(AZETIDIN-1-YL)-[1,2,4]TRIAZOLO[1,5-A]PYRIDINYL COMPOUNDS, COMPOSITIONS AND METHODS OF USE THEREOF” (Genentech, Inc., priority 2016, published 2023)
One block for each molecule: values may come before it.

Columns and labels:
[1] = target: T1, isolated recombinant JAK1 kinase domain (Homo sapiens, UniProt P23458); assay: JAK enzyme assay, JAK1 kinase domain (Caliper LabChip); type: biochemical; settings: 1.5 nM JAK1, ATP 25 μM, Morrison tight binding model
T1 construct: isolated recombinant JAK1 and JAK2 kinase domain
T1 sequence (P23458 875-1153 limits assumed): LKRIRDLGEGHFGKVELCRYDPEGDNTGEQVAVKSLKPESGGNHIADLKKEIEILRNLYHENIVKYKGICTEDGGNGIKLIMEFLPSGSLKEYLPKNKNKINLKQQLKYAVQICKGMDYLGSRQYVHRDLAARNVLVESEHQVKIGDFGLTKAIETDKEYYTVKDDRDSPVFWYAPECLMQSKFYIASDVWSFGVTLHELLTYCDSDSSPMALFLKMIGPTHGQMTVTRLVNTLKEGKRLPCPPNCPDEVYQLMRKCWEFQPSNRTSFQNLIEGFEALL
How it was run: (§1)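 Recombinant kinase domains phosphorylated a 5-carboxyfluorescein-labelled JAK3-derived peptide for 30 min at 22 °C, and the reaction was stopped with EDTA (50 mM final). Product fraction was measured by Caliper LabChip mobility shift. Ki came from Morrison tight-binding fits corrected for ATP competition (Ki=Ki,app/(1+[ATP]/Km,app)).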

[2] = target: T2, isolated recombinant JAK2 kinase domain (Homo sapiens, UniProt O60674); assay: JAK enzyme assay, JAK2 kinase domain (Caliper LabChip); type: biochemical; settings: 0.2 nM JAK2, ATP 25 μM, Morrison tight binding model
T2 construct: isolated recombinant JAK1 and JAK2 kinase domain
T2 sequence (O60674 849-1124 limits assumed): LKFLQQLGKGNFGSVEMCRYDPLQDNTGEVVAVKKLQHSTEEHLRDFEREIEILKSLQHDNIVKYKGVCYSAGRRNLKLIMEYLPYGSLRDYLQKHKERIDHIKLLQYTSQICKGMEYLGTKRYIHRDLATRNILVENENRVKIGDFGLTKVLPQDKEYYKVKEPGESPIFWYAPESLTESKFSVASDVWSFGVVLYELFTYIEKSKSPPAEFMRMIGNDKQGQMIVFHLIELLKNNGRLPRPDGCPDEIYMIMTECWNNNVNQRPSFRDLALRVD
How it was run: as §1

[3] = test system: JAK1-dependent STAT6 phosphorylation downstream of IL-13 stimulation in BEAS-2B cells; assay: JAK1 pathway assay in cell lines: IL-13 p-STAT6 BEAS-2B; type: cell-based; settings: BEAS-2B human bronchial epithelial cells, 1 hr compound, IL-13 15 min, MSD readout
How it was run: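 BEAS-2B cells plated a day ahead in complete growth medium; compounds added 1 hr at 37 °C (0.2% DMSO final), then IL-13 at lot-specific EC90 for 15 min at 37 °C. Phospho-STAT6 in lysates measured by MSD; EC50 is 50% inhibition relative to DMSO control.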

Ki [1]: 0.2 nM
Ki [2]: 0.3 nM
SMILES: CC(C)c1cnn(C2(CC#N)CN(c3cccn4nc(Nc5cnn(C)c5)nc34)C2)c1 [Example 138, 2-[3-(4-isopropylpyrazol-1-yl)-1-[2-[(l-methylpyrazol-4-yl)amino]-[1,2,4]triazolo[1,5-a]pyridin-8-yl]azetidin-3-yl]acetonitrile]
EC50 [3]: 16 nM

Ki [1]: 0.3 nM
Ki [2]: 0.1 nM
SMILES: CN1CCN(C(=O)Cn2cc(Nc3nc4c(N5CC(CC#N)(n6cc(NCC(F)(F)F)cn6)C5)cccn4n3)cn2)CC1 [Example 104]
EC50 [3]: 22 nM

Ki [1]: 0.4 nM
Ki [2]: 0.5 nM
SMILES: Cn1cc(Nc2nc3c(N4CC(CC#N)(n5cc(C6CC6)cn5)C4)cccn3n2)cn1 [Example 142, 2-[3-(4-cyclopropylpyrazol-1-yl)-1-[2-[(l-methylpyrazol-4-yl)amino]-[1,2,4]triazolo[1,5-a]pyridin-8-yl]azetidin-3-yl]acetonitrile]
EC50 [3]: 14 nM

Ki [1]: 0.3 nM
Ki [2]: 1.3 nM
SMILES: Cc1ccccc1-c1cnn(C2(CC#N)CN(c3cccn4nc(Nc5cnn(CC(=O)N6CCC(N7CCOCC7)CC6)c5)nc34)C2)c1 [Example 123]
EC50 [3]: 87 nM

Ki [1]: 0.2 nM
Ki [2]: 0.3 nM
SMILES: N#CCC1(n2cc(OC(F)F)cn2)CN(c2cccn3nc(Nc4cn[nH]c4)nc23)C1 [Example 146, 2-[3-[4-(difluoromethoxy)pyrazol-1-yl]-1-[2-(1H-pyrazol-4-ylamino)-[1,2,4]triazolo[1,5-a]pyridin-8-yl]azetidin-3-yl]acetonitrile]
EC50 [3]: 7 nM

Ki [1]: 0.5 nM
Ki [2]: 0.8 nM
SMILES: CCN1CCN(C(=O)Cn2cc(Nc3nc4c(N5CC(CC#N)(c6cccc(SC)c6)C5)cccn4n3)cn2)CC1 [Example 80]
EC50 [3]: 51 nM

Ki [1]: 1.2 nM
Ki [2]: 5.1 nM
SMILES: CN1CCN(C(=O)Cn2cc(Nc3nc4c(N5CC(CC#N)(Cc6cccc(Cl)c6)C5)cccn4n3)cn2)CC1 [Example 102, 2-[3-[(3-chlorophenyl)methyl]-1-[2-[[1-[2-(4-methylpiperazin-1-yl)-2-oxo-ethyl]pyrazol-4-yl]amino]-[1,2,4]triazolo[1,5-a]pyridin-8-yl]azetidin-3-yl]acetonitrile]
EC50 [3]: 290 nM

Ki [1]: 0.3 nM
Ki [2]: 0.9 nM
SMILES: CSc1cccc(C2(CC#N)CN(c3cccn4nc(Nc5cnn(CC(=O)N6CCN(C)CC6)c5)nc34)C2)c1 [Example 78]
EC50 [3]: 17 nM

Ki [1]: 0.3 nM
Ki [2]: 0.8 nM
SMILES: N#CCC1(n2cc(Br)cn2)CN(c2cccn3nc(Nc4cnn(CC(=O)N5CCN(C6CCOCC6)CC5)c4)nc23)C1 [Example 129, 2-[3-(4-bromopyrazol-1-yl)-1-[2-[[1-[2-oxo-2-(4-tetrahydropyran-4-ylpiperazin-1-yl)ethyl]pyrazol-4-yl]amino]-[1,2,4]triazolo[1,5-a]pyridin-8-yl]azetidin-3-yl]acetonitrile]
EC50 [3]: 49 nM

Ki [1]: 0.1 nM
Ki [2]: 1.4 nM
SMILES: N#CCC1(n2cc(SC(F)F)cn2)CN(c2cccn3nc(Nc4cn[nH]c4)nc23)C1 [Example 151, 2-[3-[4-(difluoromethylsulfanyl)pyrazol-1-yl]-1-[2-(1H-pyrazol-4-ylamino)-[1,2,4]triazolo[1,5-a]pyridin-8-yl]azetidin-3-yl]acetonitrile]
EC50 [3]: 42 nM

Ki [1]: 0.3 nM
Ki [2]: 1.7 nM
SMILES: N#CCC1(n2cc(C(F)(F)F)cn2)CN(c2cccn3nc(Nc4ccc(C(=O)N5CCN(C6COC6)CC5)cc4)nc23)C1 [Example 103, 2-[1-[2-[4-[4-(oxetan-3-yl)piperazine-1-carbonyl]anilino]-[1,2,4]triazolo[1,5-a]pyridin-8-yl]-3-[4-(trifluoromethyl)pyrazol-1-yl]azetidin-3-yl]acetonitrile]
EC50 [3]: 33 nM

Ki [1]: 0.3 nM
Ki [2]: 0.2 nM
SMILES: CSc1cnn(C2(CC#N)CN(c3cccn4nc(Nc5cnn(CC(=O)N6CCN(C)CC6)c5)nc34)C2)c1 [Example 119]
EC50 [3]: 16 nM

Ki [1]: 0.9 nM
Ki [2]: 0.8 nM
SMILES: N#CCC1(n2cc(C(F)(F)F)cn2)CN(c2cccn3nc(Nc4cnn(CCCO)c4)nc23)C1 [Example 136]
EC50 [3]: 20 nM

Ki [1]: 0.2 nM
Ki [2]: 0.7 nM
SMILES: CN1CCN(C(=O)Cn2cc(Nc3nc4c(N5CC(CC#N)(n6cc(C#N)cn6)C5)cccn4n3)cn2)CC1 [Example 87, 1-[3-(cyanomethyl)-1-[2-[[1-[2-(4-methylpiperazin-1-yl)-2-oxo-ethyl]pyrazol-4-yl]amino]-[1,2,4]triazolo[1,5-a]pyridin-8-yl]azetidin-3-yl]pyrazole-4-carbonitrile]
EC50 [3]: 17 nM

The next lines start with the molecule.

SMILES: CCc1cnn(C2(CC#N)CN(c3cccn4nc(Nc5ccc(C(=O)N6CCN(C7CCOCC7)CC6)cc5)nc34)C2)c1 [Example 37, 2-[3-(4-ethylpyrazol-1-yl)-1-[2-[4-(4-tetrahydropyran-4-ylpiperazine-1-carbonyl)anilino]-[1,2,4]triazolo[1,5-a]pyridin-8-yl]azetidin-3-yl]acetonitrile]
Ki [1]: 0.5 nM
Ki [2]: 2.9 nM
EC50 [3]: 23 nM

SMILES: CCc1cnn(C2(CC#N)CN(c3cccn4nc(Nc5ccc(C(=O)N6CCN(C7COC7)CC6)cc5)nc34)C2)c1 [Example 44, 2-[3-(4-ethylpyrazol-1-yl)-1-[2-[4-[4-(oxetan-3-yl)piperazine-1-carbonyl]anilino]-[1,2,4]triazolo[1,5-a]pyridin-8-yl]azetidin-3-yl]acetonitrile]
Ki [1]: 2.2 nM
Ki [2]: 29.5 nM
EC50 [3]: 648 nM

SMILES: CCc1cnn(C2(CC#N)CN(c3cccn4nc(Nc5ccc6c(c5)CCN([C@H]5CCOC5)C6)nc34)C2)c1 (stereo in doubt) [Example 62, 2-[3-(4-ethylpyrazol-1-yl)-1-[2-[[2-[rac-(3S)-tetrahydrofuran-3-yl]-3,4-dihydro-1H-isoquinolin-6-yl]amino]-[1,2,4]triazolo[1,5-a]pyridin-8-yl]azetidin-3-yl]acetonitrile]
Ki [1]: 0.4 nM
Ki [2]: 0.4 nM
EC50 [3]: 49 nM

SMILES: CCc1cnn(C2(CC#N)CN(c3cccn4nc(Nc5cnn(CC(=O)N6CCN(CC)CC6)c5)nc34)C2)c1 [Example 41]
Ki [1]: 0.5 nM
Ki [2]: 1.9 nM
EC50 [3]: 65 nM

SMILES: Cc1ccccc1-c1cnn(C2(CC#N)CN(c3cccn4nc(Nc5cnn(CC(=O)N6CCN(C)CC6)c5)nc34)C2)c1 [Example 63]
Ki [1]: 0.2 nM
Ki [2]: 0.2 nM
EC50 [3]: 13 nM

SMILES: CN1CCN(C(=O)Cn2cc(Nc3nc4c(N5CC(CC#N)(N6CCC(C#N)CC6)C5)cccn4n3)cn2)CC1 [Example 13, 1-[3-(cyanomethyl)-1-[2-[[1-[2-(4-methylpiperazin-1-yl)-2-oxo-ethyl]pyrazol-4-yl]amino]-[1,2,4]triazolo[1,5-a]pyridin-8-yl]azetidin-3-yl]piperidine-4-carbonitrile]
Ki [1]: 1.6 nM
Ki [2]: 5.3 nM
EC50 [3]: 82 nM

SMILES: Cc1cc(C2(CC#N)CN(c3cccn4nc(Nc5cnn(CC(=O)N6CCN(C)CC6)c5)nc34)C2)ccc1Cl [Example 27, 2-[3-(4-chloro-3-methyl-phenyl)-1-[2-[[1-[2-(4-methylpiperazin-1-yl)-2-oxo-ethyl]pyrazol-4-yl]amino]-[1,2,4]triazolo[1,5-a]pyridin-8-yl]azetidin-3-yl]acetonitrile]
Ki [1]: 0.5 nM
Ki [2]: 1.8 nM
EC50 [3]: 51 nM

SMILES: CCc1cccc(C2(CC#N)CN(c3cccn4nc(Nc5cnn(CC(=O)N6CCN(C)CC6)c5)nc34)C2)c1 [Example 71, 2-[3-(3-ethylphenyl)-1-[2-[[1-[2-(4-methylpiperazin-1-yl)-2-oxo-ethyl]pyrazol-4-yl]amino]-[1,2,4]triazolo[1,5-a]pyridin-8-yl]azetidin-3-yl]acetonitrile]
Ki [1]: 0.3 nM
Ki [2]: 0.3 nM
EC50 [3]: 26 nM

SMILES: CN1CCN(C(=O)Cn2cc(Nc3nc4c(N5CC(CC#N)(n6cc(CCO)cn6)C5)cccn4n3)cn2)CC1 [Example 25, 2-[3-[4-(2-hydroxyethyl)pyrazol-1-yl]-1-[2-[[1-[2-(4-methylpiperazin-1-yl)-2-oxo-ethyl]pyrazol-4-yl]amino]-[1,2,4]triazolo[1,5-a]pyridin-8-yl]azetidin-3-yl]acetonitrile]
Ki [1]: 0.4 nM
Ki [2]: 2.3 nM
EC50 [3]: 137 nM

SMILES: CCc1cnn(C2(CC#N)CN(c3cccn4nc(Nc5ccc(C(=O)N6CCN(C)CC6)cc5)nc34)C2)c1 [Example 38, 2-(3-(4-ethyl-1H-pyrazol-1-yl)-1-(2-((4-(4-methylpiperazine-1-carbonyl)phenyl)amino)-[1,2,4]triazolo[1,5-a]pyridin-8-yl)azetidin-3-yl)acetonitrile]
Ki [1]: 0.7 nM
Ki [2]: 4.1 nM
EC50 [3]: 615 nM

SMILES: CN1CCN(C(=O)Cn2cc(Nc3nc4c(N5CC(CC#N)(N6CCC(C(F)(F)F)CC6)C5)cccn4n3)cn2)CC1 [Example 11]
Ki [1]: 1.3 nM
Ki [2]: 5.8 nM
EC50 [3]: 37 nM

SMILES: CCc1cnn(C2(CC#N)CN(c3cccn4nc(Nc5cnn(CC(=O)N6CCN(C7COC7)CC6)c5)nc34)C2)c1 [Example 32, 2-[3-(4-ethylpyrazol-1-yl)-1-[2-[[1-[2-[4-(oxetan-3-yl)piperazin-1-yl]-2-oxo-ethyl]pyrazol-4-yl]amino]-[1,2,4]triazolo[1,5-a]pyridin-8-yl]azetidin-3-yl]acetonitrile;formic acid]
Ki [1]: 0.4 nM
Ki [2]: 0.2 nM
EC50 [3]: 19 nM

SMILES: CSc1ccc(C2(CC#N)CN(c3cccn4nc(Nc5cnn(CC(=O)N6CCN(C)CC6)c5)nc34)C2)cc1 [Example 14]
Ki [1]: 1.8 nM
Ki [2]: 4.5 nM
EC50 [3]: 72 nM

SMILES: CN1CCN(C(=O)Cn2cc(Nc3nc4c(N5CC(CC#N)(CCc6ccccc6)C5)cccn4n3)cn2)CC1 [Example 76]
Ki [1]: 0.3 nM
Ki [2]: 0.9 nM
EC50 [3]: 16 nM
